Measured values as given in patent US20080267882A1, “Imaging compounds, methods of making imaging compounds, methods of imaging, therapeutic compounds, methods of making therapeutic compounds, and methods of therapy” (Stanford University, priority 2007, published 2008).
“And” between values parts separate entries of the source, which are not always exact repeats. Equal values may be shown once. Each block holds one compound with its values, some of them ahead of it.

How the values were obtained:
[1] = molecular target: T1, integrin αvβ3 (Homo sapiens, UniProt P05106+P06756); test: competitive cell binding assay using ^125I-echistatin on U87MG cells; conditions: Example 4; n=3; read-out: IC50 (inhibition of ^125I-echistatin binding to U87MG cells)
T1 construct: evaluated using U87MG cells (integrin αvβ3-positive); endogenous in cells; host or cells: U87MG human glioblastoma cells (ATCC)
Protocol: Experiments were performed on U87MG human glioblastoma cells with triplicate samples as previously reported.
In vitro integrin αvβ3-binding affinities and specificities of RGD4, PRGD4 and FPRGD4 were assessed via displacement cell binding assays using ^125I-echistatin as the integrin αvβ3-specific radioligand. Experiments were performed on U87MG human glioblastoma cells by the method previously described (J Nucl Med. 2005;46:1707-1718 J Nucl Med. 2006;47:1172-1180, which is incorporated herein by reference for the corresponding discussion). […] Experiments were performed with triplicate samples.
Experiments were performed with triplicate samples.
In vitro integrin-binding affinity and specificity of RGD multimers and DOTA-RGD multimers were assessed via competitive cell binding assays using ^125I-echistatin as the integrin αvβ3-specific radioligand (J Nucl Med. 2005;46:1707-1718, which is incorporated herein by reference for the corresponding discussion). […] Experiments were performed with triplicate samples.

[2] = test system: MDA-MB-435 tumor-bearing mice; test: biodistribution of ^3H-PTX and ^3H-RGD2−PTX in MDA-MB-435 tumor-bearing mice; format: in vivo, mouse
Protocol: All animal experiments were performed in compliance with the guidelines for the care and use of research animals established by the Stanford University's Animal Studies Committee. Female athymic nude mice (nu/nu) were obtained from Harlan (Indianapolis, Ind.) at 6-8 weeks of age and were kept under sterile conditions. The MDA-MB-435 cells were harvested and suspended in sterile PBS at a concentration of 5×10^7 cells/mL. Viable cells (5×10^6) in PBS (100 μL) were injected orthotopically in the right mammary fat pad. […] Tumor growth was followed by caliper measurements of perpendicular measures of the tumor. The tumor volume was estimated by the formula: tumor volume=a×(b^2)/2, where a and b are the tumor length and width respectively in mm.
The animals were euthanized at 4, 24 and 48 h post injection and major organs and tissues were collected correspondingly. Approximately 100 mg of the tissue was added to glass scintillation vials containing 1 mL of tissue solubilizer SoluEne®-350 (Perkin-Elmer, Waltham, Mass.). These samples were digested at 55° C. for overnight followed by bleaching to obtain the decolorized samples. Chemiluminescence was reduced by the addition of glacial acetic acid. Hionic-Fluor liquid scintillation cocktail (Perkin-Elmer) was added to all samples, which were then counted with a Tri-Carb 2800TR liquid scintillation Analyzer (Perkin-Elmer).

[3] = in vivo; conditions: mouse, iv, 3.7 MBq, total radioactivity, U87MG tumor uptake
Protocol: PET scans and image analysis were performed using a microPET R4 rodent model scanner (Siemens Medical Solutions) as previously reported (J Nucl Med 2006;47:113-121 and J Nucl Med 2005;46:1707-1718, each of which is incorporated herein by reference for the corresponding discussion). Each mouse was tail-vein injected with about 3.7 MBq (100 μCi) of ^18F-FPRGD2 under isoflurane anesthesia. The 30-min dynamic scan (1×30 s, 4×1 min, 1×1.5 min, 4×2 min, 1×2.5 min, 4×3 min, total of 15 frames) was started 1 min after injection. Five min static PET images were also acquired at 1 h and 2 h post-injection (p.i.). The images were reconstructed by a 2-dimensional ordered-subsets expectation maximum (OSEM) algorithm and no correction was applied for attenuation or scatter.
PET scans and image analysis were performed using a microPET R4 rodent model scanner (Siemens Medical Solutions) as previously reported. For U87MG tumor model, mice (n=3) were tail-vein injected with about 3.7 MBq (100 μCi) of ^18F-FPRGD4 under isoflurane anesthesia and then subjected to a 30-min dynamic scan (1×30 s, 4×1 min, 1×1.5 min, 4×2 min, 1×2.5 min, 4×3 min, total of 15 frames) starting from 1 min p.i. Five min static PET images were also acquired at 1, 2, and 3 h p.i. The images were reconstructed by 2-dimensional ordered-subsets expectation maximum (OSEM) algorithm. No attenuation or scatter correction was applied. […] The 5-min static PET scans was then acquired at 30 min and 1 h p.i. Multiple time point static scans were also obtained for orthotopic MDA-MB-435, c-neu oncomouse, and subcutaneous DU145 tumor models after tail-vein injected with 3.7 MBq of ^18F-FPRGD4.
For each microPET scan, regions of interest (ROIs) were drawn over the tumor, normal tissue, and major organs by using vendor software (ASI Pro 5.2.4.0) on decay-corrected whole-body coronal images. The maximum radioactivity concentration (accumulation) within a tumor or an organ was obtained from mean pixel values within the multiple ROI volume, which were converted to counts/mL/min by using a conversion factor. Assuming a tissue density of 1 g/mL, the ROIs were converted to counts/g/min and then divided by the administered activity to obtain an imaging ROI-derived % ID/g. […]
PET scans and image analysis were performed using a microPET R4 rodent model scanner (Siemens Medical Solutions) as previously reported (J Nucl Med. 2005;46:1707-1718 and J Nucl Med. 2006;47:113-121, each of which is incorporated herein by reference for the corresponding discussion). About 9.3 MBq of ^64Cu-DOTA-RGD multimer was intravenously injected into each mouse under isoflurane anesthesia. Five minute static scans were acquired at 30 min, 1 h, 2 h, 6 h, and 20 h p.i. The images were reconstructed by a 2-dimensional ordered-subsets expectation maximum (OSEM) algorithm and no correction was applied for attenuation and scatter. For each microPET scan, regions of interest (ROIs) were drawn over the tumor, normal tissue, and major organs on decay-corrected whole-body coronal images. The radioactivity concentration (accumulation) within a tumor was obtained from the maximum value within the multiple ROIs and then converted to % ID/g.
PET scans and image analysis were performed using a microPET R4 rodent model scanner (Siemens Medical Solutions) as previously reported (J Nucl Med. 2006;47:113-21 and J Nucl Med. 2005;46:1707-18, which is incorporated herein by reference for the corresponding discussion). […] The 60-min dynamic scan (5×1 min, 10×3 min, 5×5 min, total of 20 frames) was started 1 min after injection. A 2 h time point static scan was also acquired after the 60 min dynamic scan. Five min static PET images were also acquired separately at 30 min, 1 h and 2 h time points post-injection (p.i.) for another set of tumor-bearing mice (n=3/tracer). The images were reconstructed by a 2-dimensional ordered-subsets expectation maximum (OSEM) algorithm and no correction was necessary for attenuation or scatter correction. […]

IC50 [1]: 11 nM
Structure (SMILES): N=C(N)NCCC[C@@H]1NC(=O)[C@H](CCCCNC(=O)CC[C@H](NC(=O)CC[C@H](NC(=O)CC[C@H](NC(=O)CN2CCN(CC(=O)O)CCN(CC(=O)O)CCN(CC(=O)O)CC2)C(=O)N[C@@H](CCC(=O)N[C@@H](CCC(=O)NCCCC[C@@H]2NC(=O)[C@@H](Cc3ccc(O)cc3)NC(=O)[C@H](CC(=O)O)NC(=O)CNC(=O)[C@H](CCCNC(=N)N)NC2=O)C(=O)NCCCC[C@@H]2NC(=O)[C@@H](Cc3ccc(O)cc3)NC(=O)[C@H](CC(=O)O)NC(=O)CNC(=O)[C@H](CCCNC(=N)N)NC2=O)C(=O)N[C@@H](CCC(=O)NCCCC[C@@H]2NC(=O)[C@@H](Cc3ccc(O)cc3)NC(=O)[C@H](CC(=O)O)NC(=O)CNC(=O)[C@H](CCCNC(=N)N)NC2=O)C(=O)NCCCC[C@@H]2NC(=O)[C@@H](Cc3ccc(O)cc3)NC(=O)[C@H](CC(=O)O)NC(=O)CNC(=O)[C@H](CCCNC(=N)N)NC2=O)C(=O)N[C@@H](CCC(=O)NCCCC[C@@H]2NC(=O)[C@@H](Cc3ccc(O)cc3)NC(=O)[C@H](CC(=O)O)NC(=O)CNC(=O)[C@H](CCCNC(=N)N)NC2=O)C(=O)NCCCC[C@@H]2NC(=O)[C@@H](Cc3ccc(O)cc3)NC(=O)[C@H](CC(=O)O)NC(=O)CNC(=O)[C@H](CCCNC(=N)N)NC2=O)C(=O)NCCCC[C@@H]2NC(=O)[C@@H](Cc3ccc(O)cc3)NC(=O)[C@H](CC(=O)O)NC(=O)CNC(=O)[C@H](CCCNC(=N)N)NC2=O)NC(=O)[C@@H](Cc2ccc(O)cc2)NC(=O)[C@H](CC(=O)O)NC(=O)CNC1=O [DOTA-RGD octamer]

IC50 [1]: 28 nM
Structure (SMILES): N=C(N)NCCC[C@@H]1NC(=O)[C@H](CCCCNC(=O)CC[C@H](NC(=O)CC[C@H](NC(=O)CN2CCN(CC(=O)O)CCN(CC(=O)O)CCN(CC(=O)O)CC2)C(=O)N[C@@H](CCC(=O)NCCCC[C@@H]2NC(=O)[C@@H](Cc3ccc(O)cc3)NC(=O)[C@H](CC(=O)O)NC(=O)CNC(=O)[C@H](CCCNC(=N)N)NC2=O)C(=O)NCCCC[C@@H]2NC(=O)[C@@H](Cc3ccc(O)cc3)NC(=O)[C@H](CC(=O)O)NC(=O)CNC(=O)[C@H](CCCNC(=N)N)NC2=O)C(=O)NCCCC[C@@H]2NC(=O)[C@@H](Cc3ccc(O)cc3)NC(=O)[C@H](CC(=O)O)NC(=O)CNC(=O)[C@H](CCCNC(=N)N)NC2=O)NC(=O)[C@@H](Cc2ccc(O)cc2)NC(=O)[C@H](CC(=O)O)NC(=O)CNC1=O [DOTA-RGD tetramer]

Structure (SMILES): CC(=O)O[C@H]1C(=O)[C@@]2(C)[C@H]([C@H](OC(=O)c3ccccc3)[C@]3(O)C[C@H](OC(=O)[C@H](O)[C@@H](NC(=O)c4ccccc4)c4ccccc4)C(C)=C1C3(C)C)[C@]1(OC(C)=O)CO[C@@H]1C[C@@H]2O [^3H-PTX, reference compound]
tissue concentration, Blood ([2]; 4 h): 67.1 ± 9.8 ng/g | tissue concentration, Intestine ([2]; 4 h): 274.1 ± 110.1 ng/g | tissue concentration, Kidney ([2]; 4 h): 339.6 ± 67.6 ng/g | tissue concentration, Liver ([2]; 4 h): 2389.3 ± 408.8 ng/g | tissue concentration, Lung ([2]; 4 h): 329.2 ± 18.2 ng/g | tissue concentration, MDA-MB-435 tumor ([2]; 4 h): 239.0 ± 56.2 ng/g | tissue concentration, Muscle ([2]; 4 h): 257.3 ± 32.2 ng/g | tissue concentration, Skin ([2]; 4 h): 135.1 ± 23.5 ng/g | tissue concentration, Spleen ([2]; 4 h): 365.5 ± 118.5 ng/g | tissue concentration, Stomach ([2]; 4 h): 180.7 ± 15.7 ng/g | tissue concentration, Blood ([2]; 24 h): 42.7 ± 14.7 ng/g | tissue concentration, Intestine ([2]; 24 h): 14.4 ± 2.5 ng/g | tissue concentration, Kidney ([2]; 24 h): 38.0 ± 13.3 ng/g | tissue concentration, Liver ([2]; 24 h): 123.4 ± 12.2 ng/g | tissue concentration, Lung ([2]; 24 h): 35.2 ± 5.4 ng/g | tissue concentration, MDA-MB-435 tumor ([2]; 24 h): 85.6 ± 15.2 ng/g | tissue concentration, Muscle ([2]; 24 h): 41.1 ± 17.2 ng/g | tissue concentration, Skin ([2]; 24 h): 24.6 ± 3.2 ng/g | tissue concentration, Spleen ([2]; 24 h): 51.6 ± 7.6 ng/g | tissue concentration, Stomach ([2]; 24 h): 24.4 ± 4.7 ng/g | decrease of concentration in the tumor ([2]; 24 h compared with 4 h): around 3 fold | drop of concentration in kidneys ([2]; 24 h compared with 4 h): 9 fold | drop of concentration in the liver ([2]; 24 h compared with 4 h): 20 fold | tissue concentration, Blood ([2]; 48 h): 35.0 ± 1.5 ng/g | tissue concentration, Intestine ([2]; 48 h): 12.8 ± 7.0 ng/g | tissue concentration, Kidney ([2]; 48 h): 35.7 ± 2.0 ng/g | tissue concentration, Liver ([2]; 48 h): 132.6 ± 31.9 ng/g | tissue concentration, Lung ([2]; 48 h): 47.9 ± 8.8 ng/g | tissue concentration, MDA-MB-435 tumor ([2]; 48 h): 45.8 ± 1.69 ng/g and 45.8 ± 1.7 ng/g | tissue concentration, Muscle ([2]; 48 h): 35.4 ± 10.7 ng/g | tissue concentration, Skin ([2]; 48 h): 25.4 ± 9.3 ng/g | tissue concentration, Spleen ([2]; 48 h): 36.4 ± 8.4 ng/g | tissue concentration, Stomach ([2]; 48 h): 17.2 ± 4.0 ng/g | decrease of concentration in the tumor ([2]; 48 h compared with 4 h): 5.2 fold

tissue uptake at 0.5 h ([3]; athymic nude): 3.4 ± 0.1 %ID/g | tissue uptake at 1 h ([3]; athymic nude): 2.8 ± 0.1 %ID/g | tissue uptake at 2 h ([3]; athymic nude): 2 ± 0.2 %ID/g | tissue uptake at 5 min ([3]; nude): 4.9 %ID/g | tissue uptake at 0.25 h ([3]; nude): 4.08 %ID/g | tissue uptake at 0.5 h ([3]; nude): 3.48 %ID/g | tissue uptake at 1 h ([3]; nude): 2.86 %ID/g | tissue uptake at 2 h ([3]; nude): 2.13 %ID/g
Structure (SMILES): N=C(N)NCCC[C@@H]1NC(=O)[C@H](CCCCNC(=O)CC[C@H](NC(=O)CC[C@H](NC(=S)Nc2ccc(C[C@H]3CN(CC(=O)O)CCN(CC(=O)O)CCN3CC(=O)O)cc2)C(=O)N[C@@H](CCC(=O)NCCCC[C@@H]2NC(=O)[C@@H](Cc3ccc(O)cc3)NC(=O)[C@H](CC(=O)O)NC(=O)CNC(=O)[C@H](CCCNC(=N)N)NC2=O)C(=O)NCCCC[C@@H]2NC(=O)[C@@H](Cc3ccc(O)cc3)NC(=O)[C@H](CC(=O)O)NC(=O)CNC(=O)[C@H](CCCNC(=N)N)NC2=O)C(=O)NCCCC[C@@H]2NC(=O)[C@@H](Cc3ccc(O)cc3)NC(=O)[C@H](CC(=O)O)NC(=O)CNC(=O)[C@H](CCCNC(=N)N)NC2=O)NC(=O)[C@@H](Cc2ccc(O)cc2)NC(=O)[C@H](CC(=O)O)NC(=O)CNC1=O [^68Ga-NOTA-RGD4, metal not drawn]
